Source: patent publication US20090307784A1, “Methods of Analysing Cell Behaviour” (Medical Research Council, priority 2005, published 2009)

Key:
[1] = system: Gli1; conditions: cultured keratinocytes; cited from earlier work
[2] = system: transit amplifying cell clones and stem cell clones in tail skin epidermis; experiment: Topical treatment of tail skin of induced Ahcre^ERT R26^EYFP/wt mice, clonal fate by wholemount confocal imaging; assay type: in vivo, mouse; conditions: applied topically to tail skin, compared with vehicle only control
Description: The generation of Ahcre^ERT and R26^EYFP/EYFP mice has been described previously (Kemp et al (2004) Nucleic Acids Res 32, e92; Srinivas et al (2001) BMC Dev Biol 1, 4). To induce ere expression AhcreERT R26^EYFP/wt heterozygote animals were given a single intraperitoneal injection of 80 mg/kg β-napthoflavone (SIGMA) and 1 mg tamoxifen free base (MP Biomedicals) dissolved in corn oil. To prepare epidermal wholemounts, mice were killed, and then tail skin was cut into 0.5 cm sections and incubated in 5 mM EDTA/PBS for 4 h at 37 C. Epidermis was then peeled of the dermis and fixed in 4% paraformaldehyde for 1 h at room temperature. Fixed epidermal sheets were stored in PBS at 4C.
Epidermal sheets were blocked and permeabilized by incubation in PB buffer containing 0.5% BSA 0.25% Fish skin gelatin, 0.5% Triton X-100 and Goat/Donkey/Rat serum as appropriate in PBS for 1 h. Primary antibodies were diluted in PB buffer and epidermal sections incubated overnight at room temperature on rocking platform then washed 4×1 h in PBS/0.2% Tween 20. Secondary antibodies were diluted 1:250 in PB buffer, sections incubated overnight, then washed 4×1 h. Samples were rinsed in distilled water and mounted. […]

[3] = system: BCC and squamous carcinoma (SCC); conditions: cited from earlier work
[4] = system: BCC; conditions: topical, irradiated patched heterozygote mice; cited from earlier work

CC1=C(/C=C/C(C)=C/C=C/C(C)=C/C(=O)O)C(C)(C)CCC1 [ATRA, all trans retinoic acid]
effect on Gli1 [1]: inhibition of Gli1 | effect on stem cell clones [2]: expansion of stem cell clones | effect on transit amplifying cell clones [2]: rapid depletion of transit amplifying cell clones

COc1cc(C)c(/C=C/C(C)=C/C=C/C(C)=C/C(=O)O)c(C)c1C [acitretin]
effect on SCC and BCC development ([3]; oral, renal transplant patients): may inhibit SCC and BCC development

CC1=C(/C=C/C(C)=C/C=C/C(C)=C\C(=O)O)C(C)(C)CCC1 [isotretinoin]
benefit in chemoprevention of BCC and squamous carcinoma (SCC) ([3]; clinical studies): no benefit

CC1=C(/C=C/C(C)=C/C=C/C(C)=C/CO)C(C)(C)CCC1 [retinol]
benefit in chemoprevention of BCC and squamous carcinoma (SCC) ([3]; clinical studies): no benefit

CCOC(=O)c1ccc(C#Cc2ccc3c(c2)C(C)(C)CCS3)nc1 [tazarotene]
number of BCC induced by UV or ionizing radiation [4]: substantial decrease in the number of BCC | effect on BCC ([3]; topical treatment, clinical studies): regression of BCC
